Values of other authors as cited in patent US20070178099A1, “Suppression of TNFalpha and IL-12 in therapy” (The Kennedy Institute of Rheumatology, priority 1996, published 2007).
Read-outs that look alike come from different tables or passages of the source.

Assays:
Crohn's disease = settings: open-label trial

cA2: chimeric anti-TNF antibody: variable region of mouse anti-human TNF IgG1 antibody A2 and constant regions of human IgG1, kappa immunoglobulin
clinical effect in rheumatoid arthritis (rheumatoid arthritis; open-label trials): suppression of inflammation and with successful retreatment after relapse
clinical effect in rheumatoid arthritis (rheumatoid arthritis; randomized, double-blind, placebo-controlled trial): suppression of inflammation
clinical effect in Crohn's disease (Crohn's disease): Beneficial effects
